Here are results for two molecules from patent publication US20250186408A1, “TREATMENT OF PHARMACORESISTANT EPILEPSY” (Katholieke Universiteit Leuven, priority 2021, published 2025).

Like-named read-outs stand apart in the source and are kept apart here.

One data set is described as follows: Caco-2 permeability. In kind it is in vitro ADME. The following applies: human; for recovery at 10 μM: Caco-2, Caco-2, 10 μM; for Papp A→B at 10 μM / Papp B→A at 10 μM: Caco-2, pH 6.5 and 7.4, 10 μM; for Papp A→B at 10 μM: apical to basolateral; for Papp B→A at 10 μM: basolateral to apical. An excerpt:
In vitro ADME profiling of compounds was done by Eurofins Panlabs Inc (St Charles, MO, USA) using their ADME-Tox service (Cat Ref P375, Tier 1 ADME Panel). […] (28). The atom-based log P calculation method, called OsirisP, uses as an increment system and adds contributions of every atom based on its atom type. The prediction engine distinguishes a total of 368 atom types and was optimized using a training set of more than 5000 molecules with experimentally determined log P values. The free prediction engine has proven to outperform many alternative calculation methods (29).
Caco-2 cells were derived from a human colorectal adenocarcinoma. For permeability assays, cells were seeded at 1×10^5 cells/cm2 in 96 Multiscreen™ plates (Millipore) and used at days 21-25 post-seeding. Cells were used for 15 consecutive passages in culture. HBSS with 10 mM MES at pH 6.5 (apical side) or HBSS with HEPES at pH 7.4 (basolateral side) were used as the transport buffers. Test compounds were added at 10 μM concentration (final solvent concentration of 1% DMSO) to the apical side to determine apical to basolateral (A-B) transport and to the basal side to determine basolateral to apical (B-A) transport. For inhibition studies, 100 μM verapamil was included on both the A and B sides. Aliquots were taken from the donor side (A-B transport) at time zero and the end point, and from the receiver side (B-A transport) at the end point. Propranolol, labetalol, ranitidine, and colchicine (P-glycoprotein substrate) were included in each assay. Samples were analysed by HPLC-MS/MS for quantification. Papp (cm/sec) was calculated from the following equation: […]
Where VR is the volume of the receiver, C is the concentration of the test compound (either at the donor or receiver side and at mid-point or end point of the incubation), Δt is the incubation time (seconds) and A is the surface area of the cell monolayer (0.11 cm^2).

Another data set deals with CHRM3 (Homo sapiens, UniProt P20309). Put plainly: Calcium Flux CHRM3 Agonist. The note with it: for Emax: read-out: Max response.
The next data set addresses CAV1.2 (Homo sapiens, UniProt Q13936). Kind of data set: Ion Channel CAV1.2 Blocker. The data set is classed as cell-based.
The target of a further data set is T1, HTR1A (Homo sapiens, UniProt P08908).
T1 sequence (P08908 1-422): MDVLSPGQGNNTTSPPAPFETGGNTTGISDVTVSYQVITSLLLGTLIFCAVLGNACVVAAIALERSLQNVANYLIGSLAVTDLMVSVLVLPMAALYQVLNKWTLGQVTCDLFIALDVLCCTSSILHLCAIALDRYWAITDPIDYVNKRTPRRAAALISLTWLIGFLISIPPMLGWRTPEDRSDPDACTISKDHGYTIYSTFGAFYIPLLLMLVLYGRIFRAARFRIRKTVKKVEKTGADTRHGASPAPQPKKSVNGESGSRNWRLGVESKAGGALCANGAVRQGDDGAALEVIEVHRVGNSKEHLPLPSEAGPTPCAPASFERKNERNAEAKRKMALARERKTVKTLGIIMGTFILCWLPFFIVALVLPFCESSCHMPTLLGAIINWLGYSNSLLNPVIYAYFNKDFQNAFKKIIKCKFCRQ
Kind of data set: cAMP HTR1A Antagonist. The following applies: for Emax: read-out: Max response.

The target in the next data set is AVPR1A (Homo sapiens, UniProt P37288). Kind of data set: Calcium Flux AVPR1A Antagonist. The data set is classed as cell-based. The following applies: for IC50: read-out: RC50, result type IC50; for Emax: read-out: Max response. As for the experimental part:
(≤0.2% DMSO concentration). Assays were performed in 1× dye loading buffer consisting of 1× Dye (DiscoverX, Calcium No Wash^PLUS kit, Catalog No. 90-0091), 1× Additive A and 2.5 mM Probenecid in HBSS/20 mM HEPES. Probenecid was prepared fresh. Prior to testing, media was aspirated from cells and replaced with 25 μL dye loading buffer. Cells were incubated for 45 min at 37° C. and then 20 min at RT. For agonist determination, 25 μL of 2× compound in HBSS/20 mM HEPES was added using a FLIPR Tetra (MDS). […] 25 μL of 2× sample was added and cells were incubated for 30 min at RT in the dark to equilibrate plate temperature. After incubation, antagonist determination was initiated by addition of 25 μL of 1× compound with 3×EC80 agonist using FLIPR. For both agonist and antagonist formats, activity was measure on a FLIPR Tetra (MDS). Calcium mobilization was monitored for 2 min with a 5 sec baseline read.
FLIPR read—Area under the curve, was calculated for the entire 2 min read.

The target in a further data set is T2, VEGFR2 (Homo sapiens, UniProt P35968).
T2 construct: purchased Eurofins DiscoverX Corporation 87-1003DR; host or cells: E. coli BL21-derived host (T7 phage) or HEK-293
Kind of data set: Binding (KINOMEscan) VEGFR2 Inhibitor. The following applies: for IC50: read-out: RC50, result type IC50; for Emax: read-out: Max response. On the procedure: For most assays, kinase-tagged T7 phage strains were grown in parallel in 24-well blocks in an E. coli host derived from the BL21 strain. E. coli were grown to log-phase and infected with T7 phage from a frozen stock (multiplicity of infection=0.4) and incubated with shaking at 32° C. until lysis (90-150 min). The lysates were centrifuged (6,000×g) and filtered (0.2 μm) to remove cell debris. The remaining kinases were produced in HEK-293 cells and subsequently tagged with DNA for qPCR detection. Streptavidin-coated magnetic beads were treated with biotinylated small molecule ligands for 30 min at RT to generate affinity resins for kinase assays. The liganded beads were blocked with excess biotin and washed with blocking buffer (SeaBlock (Pierce), 1% BSA, 0.05% Tween 20, 1 mM DTT) to remove unbound ligand and to reduce non-specific phage binding. […] All reactions were performed in polypropylene 384-well plates in a final volume of 0.02 mL. […] The beads were then re-suspended in elution buffer (1×PBS, 0.05% Tween 20, 0.5 μM non-biotinylated affinity ligand) and incubated at RT with shaking for 30 min. The kinase concentration in the eluates was measured by qPCR.
The kinase concentration in the eluates was measured by qPCR. qPCR reactions were assembled by adding 2.5 μL of kinase eluate to 7.5 μL of qPCR master mix containing 0.15 μM amplicon primers and 0.15 μM amplicon probe. The qPCR protocol consisted of a 10 min hot start at 95° C., followed by 35 cycles of 95° C. for 15 sec, 60° C. for 1 min.
Binding constants (Kds) were calculated with a standard dose-response curve using the Hill equation: […]

Setting [1] is: read-out: percentual recovery, apical to basolateral direction.
Setting [2] is: read-out: percentual recovery, basolateral to apical direction.

CHRM3, sequence (P20309 whole entry): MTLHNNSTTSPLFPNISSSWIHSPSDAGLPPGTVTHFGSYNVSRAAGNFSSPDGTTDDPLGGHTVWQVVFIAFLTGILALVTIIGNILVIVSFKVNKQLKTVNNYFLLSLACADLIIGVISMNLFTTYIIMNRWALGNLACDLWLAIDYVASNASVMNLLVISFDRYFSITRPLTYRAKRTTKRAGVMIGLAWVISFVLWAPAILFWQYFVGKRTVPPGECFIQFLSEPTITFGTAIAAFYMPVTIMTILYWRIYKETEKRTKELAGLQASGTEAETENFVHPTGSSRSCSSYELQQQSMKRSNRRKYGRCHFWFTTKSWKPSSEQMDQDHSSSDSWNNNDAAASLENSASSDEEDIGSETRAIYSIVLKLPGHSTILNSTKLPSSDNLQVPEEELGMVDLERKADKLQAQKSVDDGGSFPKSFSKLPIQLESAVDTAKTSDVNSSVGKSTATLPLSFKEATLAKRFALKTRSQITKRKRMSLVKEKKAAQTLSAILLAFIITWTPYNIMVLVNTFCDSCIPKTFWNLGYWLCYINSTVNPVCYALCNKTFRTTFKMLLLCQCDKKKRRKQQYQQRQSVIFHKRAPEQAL
CAV1.2, sequence (Q13936 whole entry): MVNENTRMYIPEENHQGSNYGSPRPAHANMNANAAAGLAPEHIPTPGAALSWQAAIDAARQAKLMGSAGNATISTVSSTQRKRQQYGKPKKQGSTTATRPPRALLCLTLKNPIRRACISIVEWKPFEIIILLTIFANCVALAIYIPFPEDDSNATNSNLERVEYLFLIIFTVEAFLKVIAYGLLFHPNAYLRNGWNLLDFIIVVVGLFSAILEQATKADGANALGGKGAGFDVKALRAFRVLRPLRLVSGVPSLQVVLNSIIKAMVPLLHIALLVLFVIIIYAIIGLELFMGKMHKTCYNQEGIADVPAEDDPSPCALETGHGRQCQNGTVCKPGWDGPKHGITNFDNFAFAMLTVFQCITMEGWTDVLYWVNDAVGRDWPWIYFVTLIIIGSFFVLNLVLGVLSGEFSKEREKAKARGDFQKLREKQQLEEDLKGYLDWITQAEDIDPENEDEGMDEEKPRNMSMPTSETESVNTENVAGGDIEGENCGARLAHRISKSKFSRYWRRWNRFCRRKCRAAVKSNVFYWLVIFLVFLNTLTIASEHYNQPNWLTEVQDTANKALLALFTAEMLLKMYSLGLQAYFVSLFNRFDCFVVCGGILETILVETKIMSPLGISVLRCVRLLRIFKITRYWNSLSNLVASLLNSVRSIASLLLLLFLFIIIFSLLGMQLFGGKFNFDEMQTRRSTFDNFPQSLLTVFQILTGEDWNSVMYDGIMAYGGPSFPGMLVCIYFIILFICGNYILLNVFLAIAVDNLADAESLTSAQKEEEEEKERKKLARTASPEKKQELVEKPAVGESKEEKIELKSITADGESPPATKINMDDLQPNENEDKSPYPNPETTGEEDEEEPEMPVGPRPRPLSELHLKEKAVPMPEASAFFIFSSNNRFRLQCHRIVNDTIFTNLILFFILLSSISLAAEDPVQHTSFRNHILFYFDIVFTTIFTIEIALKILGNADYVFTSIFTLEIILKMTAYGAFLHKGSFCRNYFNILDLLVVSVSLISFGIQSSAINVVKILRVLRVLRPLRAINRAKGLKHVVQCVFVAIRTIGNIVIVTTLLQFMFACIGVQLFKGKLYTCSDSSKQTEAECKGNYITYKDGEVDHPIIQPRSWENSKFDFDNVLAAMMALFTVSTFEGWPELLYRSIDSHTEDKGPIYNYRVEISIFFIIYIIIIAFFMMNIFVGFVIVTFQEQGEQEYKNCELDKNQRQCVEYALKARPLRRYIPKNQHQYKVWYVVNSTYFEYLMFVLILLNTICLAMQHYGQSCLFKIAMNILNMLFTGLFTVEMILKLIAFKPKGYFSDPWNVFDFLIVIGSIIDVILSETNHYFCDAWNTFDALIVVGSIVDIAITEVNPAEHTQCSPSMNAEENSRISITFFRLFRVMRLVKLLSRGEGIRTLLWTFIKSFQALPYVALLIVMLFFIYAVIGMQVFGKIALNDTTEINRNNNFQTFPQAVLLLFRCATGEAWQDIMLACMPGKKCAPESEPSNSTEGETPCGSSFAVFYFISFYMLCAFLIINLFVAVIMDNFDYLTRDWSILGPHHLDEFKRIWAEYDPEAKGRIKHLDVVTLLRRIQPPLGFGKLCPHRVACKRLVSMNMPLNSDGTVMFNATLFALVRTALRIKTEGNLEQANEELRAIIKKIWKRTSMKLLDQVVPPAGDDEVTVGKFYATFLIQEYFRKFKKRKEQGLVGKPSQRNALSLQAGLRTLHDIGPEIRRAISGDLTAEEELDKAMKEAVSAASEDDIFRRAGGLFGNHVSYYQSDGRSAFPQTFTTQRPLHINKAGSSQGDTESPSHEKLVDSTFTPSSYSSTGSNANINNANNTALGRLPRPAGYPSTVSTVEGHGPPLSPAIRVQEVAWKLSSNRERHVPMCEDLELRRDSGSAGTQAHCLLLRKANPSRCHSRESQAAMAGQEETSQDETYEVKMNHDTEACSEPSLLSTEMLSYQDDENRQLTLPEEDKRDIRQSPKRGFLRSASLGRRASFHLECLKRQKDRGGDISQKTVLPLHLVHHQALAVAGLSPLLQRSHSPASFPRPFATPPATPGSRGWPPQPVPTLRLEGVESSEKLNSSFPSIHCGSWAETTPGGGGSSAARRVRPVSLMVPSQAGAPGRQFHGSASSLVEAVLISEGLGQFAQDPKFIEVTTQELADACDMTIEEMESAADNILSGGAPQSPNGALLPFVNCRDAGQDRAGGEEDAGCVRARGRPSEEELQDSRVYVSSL
CAV1.2, sequence (Q08289 whole entry partner): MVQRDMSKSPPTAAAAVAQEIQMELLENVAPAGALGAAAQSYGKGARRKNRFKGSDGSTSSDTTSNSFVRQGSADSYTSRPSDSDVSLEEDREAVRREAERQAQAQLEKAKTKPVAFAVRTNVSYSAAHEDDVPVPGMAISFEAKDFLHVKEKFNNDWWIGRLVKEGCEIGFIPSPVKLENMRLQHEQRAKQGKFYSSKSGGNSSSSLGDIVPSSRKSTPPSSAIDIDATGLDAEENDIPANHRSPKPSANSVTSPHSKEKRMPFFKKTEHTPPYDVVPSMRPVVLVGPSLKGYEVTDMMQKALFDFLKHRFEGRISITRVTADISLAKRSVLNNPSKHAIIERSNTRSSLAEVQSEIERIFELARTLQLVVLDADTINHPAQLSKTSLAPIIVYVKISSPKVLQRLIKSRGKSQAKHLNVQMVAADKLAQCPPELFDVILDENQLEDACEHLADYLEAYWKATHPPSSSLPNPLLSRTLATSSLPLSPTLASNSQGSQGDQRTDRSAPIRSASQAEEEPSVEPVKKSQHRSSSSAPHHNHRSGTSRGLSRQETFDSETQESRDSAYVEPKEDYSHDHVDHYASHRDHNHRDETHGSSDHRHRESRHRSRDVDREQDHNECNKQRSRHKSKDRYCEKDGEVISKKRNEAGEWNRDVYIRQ
CAV1.2, sequence (P54289 25-956 partner limits assumed): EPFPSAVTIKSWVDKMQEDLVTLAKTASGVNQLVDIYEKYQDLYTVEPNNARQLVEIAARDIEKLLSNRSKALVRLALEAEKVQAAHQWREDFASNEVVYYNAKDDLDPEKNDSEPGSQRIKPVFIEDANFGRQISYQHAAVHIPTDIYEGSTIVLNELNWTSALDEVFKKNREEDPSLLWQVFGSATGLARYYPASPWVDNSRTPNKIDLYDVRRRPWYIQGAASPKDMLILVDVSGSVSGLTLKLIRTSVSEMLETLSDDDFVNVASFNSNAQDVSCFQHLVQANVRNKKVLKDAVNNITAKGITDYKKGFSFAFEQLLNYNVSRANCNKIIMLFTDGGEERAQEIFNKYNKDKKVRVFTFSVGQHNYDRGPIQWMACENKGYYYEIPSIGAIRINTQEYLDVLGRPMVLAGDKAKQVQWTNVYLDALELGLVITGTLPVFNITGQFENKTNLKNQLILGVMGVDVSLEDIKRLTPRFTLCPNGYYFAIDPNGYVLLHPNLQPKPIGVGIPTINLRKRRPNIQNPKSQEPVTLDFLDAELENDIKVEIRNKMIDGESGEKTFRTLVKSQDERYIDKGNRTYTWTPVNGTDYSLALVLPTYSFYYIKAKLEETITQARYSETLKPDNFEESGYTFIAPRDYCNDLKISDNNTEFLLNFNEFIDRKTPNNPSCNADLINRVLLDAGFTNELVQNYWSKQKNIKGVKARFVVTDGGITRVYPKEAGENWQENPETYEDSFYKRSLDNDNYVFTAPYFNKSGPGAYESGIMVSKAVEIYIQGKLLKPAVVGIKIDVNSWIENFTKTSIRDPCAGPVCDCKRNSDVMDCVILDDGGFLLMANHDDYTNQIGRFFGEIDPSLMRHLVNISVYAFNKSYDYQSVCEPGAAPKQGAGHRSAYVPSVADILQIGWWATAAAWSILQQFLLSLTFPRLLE
CAV1.2, sequence (P54289 957-1103 partner limits assumed): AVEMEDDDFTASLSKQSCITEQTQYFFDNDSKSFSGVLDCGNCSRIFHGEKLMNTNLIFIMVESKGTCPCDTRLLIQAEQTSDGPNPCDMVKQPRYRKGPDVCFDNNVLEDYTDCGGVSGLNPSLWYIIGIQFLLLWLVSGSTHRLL
AVPR1A, sequence (P37288 whole entry): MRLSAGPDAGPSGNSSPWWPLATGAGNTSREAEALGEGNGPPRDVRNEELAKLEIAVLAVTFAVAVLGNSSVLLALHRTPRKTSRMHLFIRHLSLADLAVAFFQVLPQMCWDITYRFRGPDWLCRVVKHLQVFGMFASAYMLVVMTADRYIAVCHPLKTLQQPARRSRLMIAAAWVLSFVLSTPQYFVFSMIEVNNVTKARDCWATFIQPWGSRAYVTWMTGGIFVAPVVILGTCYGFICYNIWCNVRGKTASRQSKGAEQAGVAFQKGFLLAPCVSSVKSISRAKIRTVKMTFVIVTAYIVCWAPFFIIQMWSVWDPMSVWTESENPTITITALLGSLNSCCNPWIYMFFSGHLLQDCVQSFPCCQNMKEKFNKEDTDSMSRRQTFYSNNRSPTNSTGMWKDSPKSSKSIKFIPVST
Procedure for CHRM3: In vitro pharmacological profiling of compounds was done against 78 functional assays for 47 common off-targets (30) by Eurofins DiscoverX Corporation (Fremont, CA, USA) using their SAFETYscan E/IC50 ELECT service (Cat Ref 87-1003DR, Safety47 Panel Dose Response). […] Compounds were tested in a range of 10 concentrations, following a 3-fold serial dilution, starting from 10 μM. The assays were performed utilizing the PathHunter enzyme fragment complementation (EFC) technology, FLIPR®-based cellular screening assays, and KINOMEscan kinase binding assays.
Prior to testing, cells (10,000 cells/well) were expanded from freezer stocks and seeded into a total volume of 50 μL into black walled, clear-bottom, Poly-D-lysine coated 384-well microplates and incubated at 37° C. […] Assays were performed in 1× dye loading buffer consisting of 1× Dye (DiscoverX, Calcium No Wash^PLUS kit, Catalog No. 90-0091), 1× Additive A and 2.5 mM Probenecid in HBSS/20 mM HEPES. Probenecid was prepared fresh. Prior to testing, media was aspirated from cells and replaced with 25 μL dye loading buffer. Cells were incubated for 45 min at 37° C. and then 20 min at RT. For agonist determination, 25 μL of 2× compound in HBSS/20 mM HEPES was added using a FLIPR Tetra (MDS). For antagonist determination, cells were pre-incubated with sample followed by agonist challenge at the EC80 concentration. 25 μL of 2× sample was added and cells were incubated for 30 min at RT in the dark to equilibrate plate temperature. After incubation, antagonist determination was initiated by addition of 25 μL of 1× compound with 3×EC80 agonist using FLIPR. For both agonist and antagonist formats, activity was measure on a FLIPR Tetra (MDS). Calcium mobilization was monitored for 2 min with a 5 sec baseline read.
FLIPR read—Area under the curve, was calculated for the entire 2 min read. Compound activity was analysed using CBIS data analysis suite (ChemInnovation, CA).
Procedure for HTR1A: In vitro pharmacological profiling of compounds was done against 78 functional assays for 47 common off-targets (30) by Eurofins DiscoverX Corporation (Fremont, CA, USA) using their SAFETYscan E/IC50 ELECT service (Cat Ref 87-1003DR, Safety47 Panel Dose Response). […] Compounds were tested in a range of 10 concentrations, following a 3-fold serial dilution, starting from 10 μM.
cAMP Hunter cell lines were expanded from freezer stocks. Prior to testing, cells were seeded in a total volume of 20 μL into white walled 384-well microplates and incubated at 37° C. cAMP modulation was determined using the DiscoverX HitHunter cAMP XS+ assay. For Gs agonist determination, cells were incubated with sample to induce response. For Gi agonist determination, cells were incubated with sample in the presence of EC80 forskolin to induce response. For both conditions, media was aspirated from cells and replaced with 15 μL 2:1 HBSS/10 mM HEPES:cAMP XS+ Ab reagent. Intermediate dilution of sample stocks was performed to generate 4× sample in assay buffer (containing 4×EC80 forskolin in the case of antagonist determination). 5 μL of 4× sample was added to cells and incubated at 37° C. or room temperature (RT) for 30 or 60 min. Final assay vehicle concentration was 1%. For antagonist determination, cells were pre-incubated with sample followed by agonist challenge at the EC80 concentration. Media was aspirated from cells and replaced with 10 μL 1:1 HBSS/HEPES:cAMP XS+ Ab reagent. 5 μL of 4× compound was added to the cells and incubated at 37° C. or RT for 30 min. 5 μL of 4×EC80 agonist was added to the cells and incubated at 37° C. or RT for 30 or 60 min. For Gi coupled GPCRs, EC80 forskolin was included. […] Microplates were read following signal generation with a PerkinElmer Envision™ instrument for chemiluminescent signal detection. Compound activity was analyzed using CBIS data analysis suite (ChemInnovation, CA).

`CC(C)(C)c1ccc(C#CC(O)c2ccccc2)cc1` (racemic) [Compound 3.3, rac-3-(4-(tert-butyl)phenyl)-1-phenylprop-2-yn-1-ol]: the recovery at 10 μM in the data set “Caco-2 permeability” (setting [1]) was found to be 6%; in “Caco-2 permeability” (setting [2]), 15%. This molecule gave a Papp A→B at 10 μM in “Caco-2 permeability” of 0.4 ×10⁻⁶ cm/s. The molecule further registered a Papp B→A at 10 μM in “Caco-2 permeability” of 0.1 ×10⁻⁶ cm/s. For the same molecule, the EC50 on CHRM3 was more than 10 µM. The Emax on CHRM3 was 0%; at HTR1A, 47.2%; at AVPR1A it was 0%; at VEGFR2, 0%. Besides, the IC50 at CAV1.2, against HTR1A, on AVPR1A (Calcium Flux AVPR1A Antagonist) and on VEGFR2 (Binding VEGFR2 Inhibitor) was more than 10 µM in each case. In addition, on CAV1.2 (Ion Channel CAV1.2 Blocker, read-out: Max response), the Emax at 30 min stood at 7.2%.
As for `Clc1cccc(C#Cc2n[nH]c3ncccc23)c1` [Compound 10.1, 3-((3-chlorophenyl)ethynyl)-1H-pyrazolo[3,4-b]pyridine], the recovery at 10 μM in “Caco-2 permeability” (setting [1]) amounted to 13%; in the data set “Caco-2 permeability” (setting [2]), 44%. In addition, in the data set “Caco-2 permeability”, the Papp A→B at 10 μM was 3.3 ×10⁻⁶ cm/s. The molecule further registered a Papp B→A at 10 μM in the data set “Caco-2 permeability” of 0.7 ×10⁻⁶ cm/s. For the same molecule, the concentration for a half-maximal effect (EC50) on CHRM3 was more than 10 µM. For the same molecule, the Emax at CHRM3 amounted to 2.2%; at HTR1A it was 0%; on AVPR1A (Calcium Flux AVPR1A Antagonist) it was 0%; at VEGFR2 (Binding VEGFR2 Inhibitor), 5.4%. Also, the Emax at 30 min on CAV1.2 came out at 0%. Moreover, the IC50 on CAV1.2, against HTR1A, at AVPR1A (Calcium Flux AVPR1A Antagonist) and at VEGFR2 (Binding VEGFR2 Inhibitor) was more than 10 µM each time.
